Results from US12522583B2, “Benzimidazole derivatives and aza-benzimidazole derivatives as Janus kinase 2 inhibitors and uses thereof” (Dana-Farber Cancer Institute, Inc., priority 2018, dated 2026).

Tests used:
Experiment in all cases: KINOMEscan
Format in all cases: binding
[1] = biological target: PKAC-beta (Homo sapiens (Human), UniProt P22694); details: read-out: percent control
Excerpt: (§1) Example 2. In Vitro Kinase Selectivity Profiling of the Compounds of the Present Disclosure

[2] = biological target: FLT1 (Homo sapiens (Human), UniProt P17948); details: read-out: percent control
Excerpt: as §1

[3] = biological target: RIPK2 (Homo sapiens (Human), UniProt O43353); details: read-out: percent control
Excerpt: as §1

[4] = biological target: CSF1R-autoinhibited (Homo sapiens (Human), UniProt P07333); details: read-out: percent control
Excerpt: as §1

[5] = biological target: PKN1 (Homo sapiens (Human), UniProt Q16512); details: read-out: percent control
Excerpt: as §1

[6] = biological target: EPHA4 (Homo sapiens (Human), UniProt P54764); details: read-out: percent control
Excerpt: as §1

[7] = biological target: SRPK1 (Homo sapiens (Human), UniProt Q96SB4); details: read-out: percent control
Excerpt: as §1

[8] = biological target: DRAK2 (Homo sapiens (Human), UniProt O94768); details: read-out: percent control
Excerpt: as §1

[9] = biological target: FLT3-autoinhibited (Homo sapiens (Human), UniProt P36888); details: read-out: percent control
Excerpt: as §1

[10] = biological target: RPS6KA4(Kin.Dom.1-terminal) (Homo sapiens (Human), UniProt O75676); details: read-out: percent control
Excerpt: as §1

[11] = biological target: ACVR1B (Homo sapiens (Human), UniProt P36896); details: read-out: percent control
Excerpt: as §1

[12] = biological target: ROCK1 (Homo sapiens (Human), UniProt Q13464); details: read-out: percent control
Excerpt: as §1

[13] = biological target: MKK7 (Homo sapiens (Human), UniProt O14733); details: read-out: percent control
Excerpt: as §1

[14] = biological target: ITK (Homo sapiens (Human), UniProt Q08881); details: read-out: percent control
Excerpt: as §1

[15] = biological target: KIT-autoinhibited (Homo sapiens (Human), UniProt P10721); details: read-out: percent control
Excerpt: as §1

[16] = biological target: ANKK1 (Homo sapiens (Human), UniProt Q8NFD2); details: read-out: percent control
Excerpt: as §1

[17] = biological target: EPHA6 (Homo sapiens (Human), UniProt Q9UF33); details: read-out: percent control
Excerpt: as §1

[18] = biological target: HUNK (Homo sapiens (Human), UniProt P57058); details: read-out: percent control
Excerpt: as §1

[19] = biological target: MST3 (Homo sapiens (Human), UniProt Q9Y6E0); details: read-out: percent control
Excerpt: as §1

[20] = biological target: PIK4CB (Homo sapiens (Human), UniProt Q9UBF8); details: read-out: percent control
Excerpt: as §1

[21] = biological target: DAPK1 (Homo sapiens (Human), UniProt P53355); details: read-out: percent control
Excerpt: as §1

[22] = biological target: SYK (Homo sapiens (Human), UniProt P43405); details: read-out: percent control
Excerpt: as §1

[23] = biological target: YANK2 (Homo sapiens (Human), UniProt Q9NY57); details: read-out: percent control
Excerpt: as §1

[24] = biological target: ADCK3 (Homo sapiens (Human), UniProt Q8NI60); details: read-out: percent control
Excerpt: as §1

[25] = biological target: GRK1 (Homo sapiens (Human), UniProt Q15835); details: read-out: percent control
Excerpt: as §1

[26] = biological target: IRAK4 (Homo sapiens (Human), UniProt Q9NWZ3); details: read-out: percent control
Excerpt: as §1

[27] = tested on: FLT3(ITD); details: 1 μM
Excerpt: as §1

[28] = biological target: FLT3(D835Y) (Homo sapiens (Human), UniProt P36888, D835Y); details: read-out: percent control
Excerpt: as §1

[29] = biological target: MLK1 (Homo sapiens (Human), UniProt P80192); details: read-out: percent control
Excerpt: as §1

[30] = biological target: WNK4 (Homo sapiens (Human), UniProt Q96J92); details: read-out: percent control
Excerpt: as §1

[31] = biological target: MKNK2 (Homo sapiens (Human), UniProt Q9HBH9); details: read-out: percent control
Excerpt: as §1

[32] = biological target: MYLK (Homo sapiens (Human), UniProt Q15746); details: read-out: percent control
Excerpt: as §1

[33] = biological target: RSK1(Kin.Dom.1-N-terminal) (Homo sapiens (Human), UniProt Q15418); details: read-out: percent control
Excerpt: as §1

[34] = biological target: PFTAIRE2 (Homo sapiens (Human), UniProt Q96Q40); details: read-out: percent control
Excerpt: as §1

[35] = biological target: NEK3 (Homo sapiens (Human), UniProt P51956); details: read-out: percent control
Excerpt: as §1

[36] = biological target: KIT(V559D, V654A) (Homo sapiens (Human), UniProt P10721, V559D/V654A); details: read-out: percent control
Excerpt: as §1

[37] = biological target: PIK3CG (Homo sapiens (Human), UniProt P48736); details: read-out: percent control
Excerpt: as §1

[38] = biological target: ICK (Homo sapiens (Human), UniProt Q9UPZ9); details: read-out: percent control
Excerpt: as §1

[39] = biological target: BRSK1 (Homo sapiens (Human), UniProt Q8TDC3); details: read-out: percent control
Excerpt: as §1

[40] = biological target: CDK3 (Homo sapiens (Human), UniProt Q00526); details: read-out: percent control
Excerpt: as §1

[41] = biological target: RET (Homo sapiens (Human), UniProt P07949); details: read-out: percent control
Excerpt: as §1

RPS6KA4(Kin.Dom.1-terminal), sequence (O75676 33-301 limits assumed): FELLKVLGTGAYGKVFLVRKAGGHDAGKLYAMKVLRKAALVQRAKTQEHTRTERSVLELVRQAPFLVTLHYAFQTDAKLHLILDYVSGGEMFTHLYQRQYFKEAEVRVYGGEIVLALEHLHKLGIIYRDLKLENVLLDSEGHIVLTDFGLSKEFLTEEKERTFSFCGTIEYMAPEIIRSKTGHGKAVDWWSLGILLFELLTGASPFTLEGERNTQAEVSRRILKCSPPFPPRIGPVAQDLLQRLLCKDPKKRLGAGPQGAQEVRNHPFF
RET, sequence (P07949 29-1114): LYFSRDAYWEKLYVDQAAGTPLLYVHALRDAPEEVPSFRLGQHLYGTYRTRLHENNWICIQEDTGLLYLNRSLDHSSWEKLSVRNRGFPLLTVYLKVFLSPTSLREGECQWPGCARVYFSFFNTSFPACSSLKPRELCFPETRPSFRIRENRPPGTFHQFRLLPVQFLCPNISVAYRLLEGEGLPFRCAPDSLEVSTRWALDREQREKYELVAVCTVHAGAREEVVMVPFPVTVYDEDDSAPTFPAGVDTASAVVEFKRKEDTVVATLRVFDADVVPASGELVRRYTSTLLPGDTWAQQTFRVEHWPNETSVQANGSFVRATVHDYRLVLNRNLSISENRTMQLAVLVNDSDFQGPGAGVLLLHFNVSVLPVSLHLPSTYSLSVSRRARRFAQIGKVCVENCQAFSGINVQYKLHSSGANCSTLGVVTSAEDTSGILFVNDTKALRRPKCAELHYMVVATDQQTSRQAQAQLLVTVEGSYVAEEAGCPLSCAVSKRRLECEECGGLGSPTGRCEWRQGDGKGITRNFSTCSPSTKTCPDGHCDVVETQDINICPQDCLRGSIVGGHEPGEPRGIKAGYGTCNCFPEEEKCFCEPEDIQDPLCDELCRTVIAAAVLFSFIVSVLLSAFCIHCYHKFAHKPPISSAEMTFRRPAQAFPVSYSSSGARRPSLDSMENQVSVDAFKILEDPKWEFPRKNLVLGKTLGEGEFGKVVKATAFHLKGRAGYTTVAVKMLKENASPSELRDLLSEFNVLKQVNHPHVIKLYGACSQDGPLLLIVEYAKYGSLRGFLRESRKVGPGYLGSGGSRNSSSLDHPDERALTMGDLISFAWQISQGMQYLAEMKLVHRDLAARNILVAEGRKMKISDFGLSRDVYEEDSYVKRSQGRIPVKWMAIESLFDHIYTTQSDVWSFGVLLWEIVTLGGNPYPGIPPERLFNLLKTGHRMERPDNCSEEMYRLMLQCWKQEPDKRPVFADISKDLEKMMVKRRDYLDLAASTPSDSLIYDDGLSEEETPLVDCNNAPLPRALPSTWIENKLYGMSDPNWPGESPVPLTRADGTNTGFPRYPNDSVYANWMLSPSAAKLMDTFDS
PFTAIRE2, sequence (Q96Q40 whole entry): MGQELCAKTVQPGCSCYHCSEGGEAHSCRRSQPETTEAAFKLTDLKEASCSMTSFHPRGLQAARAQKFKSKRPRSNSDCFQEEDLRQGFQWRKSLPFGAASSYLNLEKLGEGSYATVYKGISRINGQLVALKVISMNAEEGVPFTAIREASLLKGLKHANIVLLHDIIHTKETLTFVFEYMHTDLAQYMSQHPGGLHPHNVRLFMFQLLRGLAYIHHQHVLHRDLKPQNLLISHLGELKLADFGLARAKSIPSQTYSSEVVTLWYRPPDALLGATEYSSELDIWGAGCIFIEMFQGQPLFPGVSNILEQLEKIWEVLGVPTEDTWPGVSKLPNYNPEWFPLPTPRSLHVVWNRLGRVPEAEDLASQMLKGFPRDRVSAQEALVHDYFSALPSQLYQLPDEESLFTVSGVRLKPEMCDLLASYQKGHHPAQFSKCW
YANK2, sequence (Q9NY57 whole entry): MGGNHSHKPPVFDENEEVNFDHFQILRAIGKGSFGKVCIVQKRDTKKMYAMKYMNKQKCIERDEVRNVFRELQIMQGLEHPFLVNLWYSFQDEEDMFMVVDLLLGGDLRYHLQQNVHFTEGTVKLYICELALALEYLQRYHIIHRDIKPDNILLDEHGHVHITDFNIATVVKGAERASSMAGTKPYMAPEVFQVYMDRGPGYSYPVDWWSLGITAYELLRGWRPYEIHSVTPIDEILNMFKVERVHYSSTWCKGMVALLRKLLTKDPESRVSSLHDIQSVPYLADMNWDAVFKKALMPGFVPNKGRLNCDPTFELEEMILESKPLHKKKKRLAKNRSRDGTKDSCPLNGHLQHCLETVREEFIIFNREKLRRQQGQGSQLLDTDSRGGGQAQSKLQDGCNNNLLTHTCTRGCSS
KIT(V559D, V654A), sequence (P10721 26-976 V559D/V654A): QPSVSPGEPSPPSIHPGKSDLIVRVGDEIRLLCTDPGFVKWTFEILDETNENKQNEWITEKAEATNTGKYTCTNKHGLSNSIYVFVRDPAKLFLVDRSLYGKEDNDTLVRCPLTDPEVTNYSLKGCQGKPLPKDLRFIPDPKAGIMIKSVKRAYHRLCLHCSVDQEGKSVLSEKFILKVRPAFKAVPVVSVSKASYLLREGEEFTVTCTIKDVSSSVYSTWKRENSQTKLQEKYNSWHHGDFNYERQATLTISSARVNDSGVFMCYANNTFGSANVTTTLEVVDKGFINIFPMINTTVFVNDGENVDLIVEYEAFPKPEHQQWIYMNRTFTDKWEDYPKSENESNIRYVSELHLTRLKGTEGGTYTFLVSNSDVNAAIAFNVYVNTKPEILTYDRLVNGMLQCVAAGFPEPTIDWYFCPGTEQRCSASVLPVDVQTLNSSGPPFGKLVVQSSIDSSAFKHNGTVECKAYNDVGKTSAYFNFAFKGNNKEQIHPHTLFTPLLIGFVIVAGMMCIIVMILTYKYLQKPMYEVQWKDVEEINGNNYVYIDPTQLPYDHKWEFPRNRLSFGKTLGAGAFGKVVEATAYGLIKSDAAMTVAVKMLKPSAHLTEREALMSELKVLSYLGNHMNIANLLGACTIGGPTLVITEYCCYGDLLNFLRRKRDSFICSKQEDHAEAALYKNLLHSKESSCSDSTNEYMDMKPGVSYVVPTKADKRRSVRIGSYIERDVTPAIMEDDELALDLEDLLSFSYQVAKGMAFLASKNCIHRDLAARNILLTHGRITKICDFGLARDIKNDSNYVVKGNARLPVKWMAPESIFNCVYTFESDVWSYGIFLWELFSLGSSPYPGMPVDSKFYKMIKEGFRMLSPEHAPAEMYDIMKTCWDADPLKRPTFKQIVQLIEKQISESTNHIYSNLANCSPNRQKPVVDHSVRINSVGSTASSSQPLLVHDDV
ADCK3, sequence (Q8NI60 163-647): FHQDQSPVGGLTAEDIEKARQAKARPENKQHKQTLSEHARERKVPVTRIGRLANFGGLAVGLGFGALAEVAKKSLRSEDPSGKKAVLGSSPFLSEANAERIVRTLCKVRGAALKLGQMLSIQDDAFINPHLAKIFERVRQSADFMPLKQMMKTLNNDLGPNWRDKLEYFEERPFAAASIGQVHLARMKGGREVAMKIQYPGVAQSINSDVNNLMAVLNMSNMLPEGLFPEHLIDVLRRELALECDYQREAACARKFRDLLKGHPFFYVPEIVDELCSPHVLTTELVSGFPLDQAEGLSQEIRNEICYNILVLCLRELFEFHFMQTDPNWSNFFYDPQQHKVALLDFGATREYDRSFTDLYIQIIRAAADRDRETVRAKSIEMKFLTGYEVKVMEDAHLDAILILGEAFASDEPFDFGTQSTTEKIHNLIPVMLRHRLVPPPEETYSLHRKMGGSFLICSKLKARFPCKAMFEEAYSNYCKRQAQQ
DAPK1, sequence (P53355 whole entry): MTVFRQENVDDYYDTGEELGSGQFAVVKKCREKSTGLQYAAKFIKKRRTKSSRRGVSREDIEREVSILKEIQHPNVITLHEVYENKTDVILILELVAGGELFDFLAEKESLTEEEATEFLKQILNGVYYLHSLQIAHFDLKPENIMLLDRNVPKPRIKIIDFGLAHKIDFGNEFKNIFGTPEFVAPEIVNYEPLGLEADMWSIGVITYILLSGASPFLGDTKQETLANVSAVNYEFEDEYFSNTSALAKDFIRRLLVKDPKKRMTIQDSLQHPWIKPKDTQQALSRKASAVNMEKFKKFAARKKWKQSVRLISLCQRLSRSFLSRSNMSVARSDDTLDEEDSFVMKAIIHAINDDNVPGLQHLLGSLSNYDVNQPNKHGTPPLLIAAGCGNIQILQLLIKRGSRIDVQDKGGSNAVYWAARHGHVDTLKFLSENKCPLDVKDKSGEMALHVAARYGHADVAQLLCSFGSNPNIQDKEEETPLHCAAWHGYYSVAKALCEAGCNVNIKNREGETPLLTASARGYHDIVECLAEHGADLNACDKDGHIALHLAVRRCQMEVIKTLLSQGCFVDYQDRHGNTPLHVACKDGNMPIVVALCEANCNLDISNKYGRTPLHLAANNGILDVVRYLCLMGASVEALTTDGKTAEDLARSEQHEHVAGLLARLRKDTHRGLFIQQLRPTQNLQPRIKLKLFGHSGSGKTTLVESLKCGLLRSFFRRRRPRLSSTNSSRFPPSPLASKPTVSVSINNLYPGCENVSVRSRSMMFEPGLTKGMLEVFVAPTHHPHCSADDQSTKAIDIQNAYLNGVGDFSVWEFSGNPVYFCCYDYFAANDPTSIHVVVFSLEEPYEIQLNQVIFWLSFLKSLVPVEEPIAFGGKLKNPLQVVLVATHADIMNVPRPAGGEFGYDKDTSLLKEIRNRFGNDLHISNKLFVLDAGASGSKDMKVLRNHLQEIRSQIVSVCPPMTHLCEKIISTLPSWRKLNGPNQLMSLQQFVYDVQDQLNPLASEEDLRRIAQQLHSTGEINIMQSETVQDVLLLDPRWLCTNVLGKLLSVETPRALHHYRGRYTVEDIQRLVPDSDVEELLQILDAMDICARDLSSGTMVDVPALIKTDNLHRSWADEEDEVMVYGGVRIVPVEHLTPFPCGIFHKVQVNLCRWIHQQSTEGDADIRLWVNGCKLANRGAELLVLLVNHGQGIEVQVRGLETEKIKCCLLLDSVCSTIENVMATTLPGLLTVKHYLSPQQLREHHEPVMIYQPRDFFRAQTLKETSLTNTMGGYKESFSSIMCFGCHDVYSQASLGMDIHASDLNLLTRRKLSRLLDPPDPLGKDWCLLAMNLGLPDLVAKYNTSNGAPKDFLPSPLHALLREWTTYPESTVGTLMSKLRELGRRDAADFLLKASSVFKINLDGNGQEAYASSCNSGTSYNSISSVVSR

Work on `CCN1CCN(Cc2ccc(Nc3nc4ccc(Oc5ccnc(NC(C)=O)c5)cc4n3C)cc2C(F)(F)F)CC1` [Compound I-2] yielded a remaining binding at 1 µM [1] of 94%, a remaining binding at 1 µM [2] of 6.3% and a remaining binding at 1 µM [3] of 94%. For the same compound, the remaining binding at 1 µM [4] was 52%, the remaining binding at 1 µM [5] was 57% and the remaining binding at 1 µM [6] was 100%. For the same compound, the remaining binding at 1 µM [7] was 50%, the remaining binding at 1 µM [8] was 100% and the remaining binding at 1 µM [9] was 100%. For the same compound, the remaining binding at 1 µM [10] was 100%, the remaining binding at 1 µM [11] was 100% and the remaining binding at 1 µM [12] was 100%. For the same compound, the remaining binding at 1 µM [13] was 80%, the remaining binding at 1 µM [14] was 97% and the remaining binding at 1 µM [15] was 76%. It also gave a remaining binding at 1 µM [16] of 100%, a remaining binding at 1 µM [17] of 100% and a remaining binding at 1 µM [18] of 65%. For the same compound, the remaining binding at 1 µM [19] was 94%, the remaining binding at 1 µM [20] was 99% and the remaining binding at 1 µM [21] was 87%. It also gave a remaining binding at 1 µM [22] of 85%, a remaining binding at 1 µM [23] of 100% and a remaining binding at 1 µM [24] of 85%. It also gave a remaining binding at 1 µM [25] of 82%, a remaining binding at 1 µM [26] of 81% and a percent control [27] of 24%. For the same compound, the remaining binding at 1 µM [28] was 70%, the remaining binding at 1 µM [29] was 100% and the remaining binding at 1 µM [30] was 93%. It also gave a remaining binding at 1 µM [31] of 82%, a remaining binding at 1 µM [32] of 59% and a remaining binding at 1 µM [33] of 100%. It also gave a remaining binding at 1 µM [34] of 75%, a remaining binding at 1 µM [35] of 77% and a remaining binding at 1 µM [36] of 7.4%. It also gave a remaining binding at 1 µM [37] of 100%, a remaining binding at 1 µM [38] of 100% and a remaining binding at 1 µM [39] of 100%. The remaining binding at 1 µM [40] was 100% and the remaining binding at 1 µM [41] was 0%.

`CCN1CCN(Cc2ccc(Nc3nc4ccc(Oc5ccnc(NC(C)=O)c5)c(C)c4n3C)cc2C(F)(F)F)CC1` [Compound I-6, N-(4-(2-(4-((4-ethylpiperazin-1-yl)methyl)-3-(trifluoromethyl)phenylamino)-1,7-dimethyl-1H-benzo[d]imidazol-6-yloxy)pyridin-2-yl)acetamide] gave a remaining binding at 1 µM [1] of 86%, a remaining binding at 1 µM [2] of 4.2% and a remaining binding at 1 µM [3] of 82%. It also gave a remaining binding at 1 µM [4] of 68%, a remaining binding at 1 µM [5] of 100% and a remaining binding at 1 µM [6] of 91%. It also gave a remaining binding at 1 µM [7] of 83%, a remaining binding at 1 µM [8] of 85% and a remaining binding at 1 µM [9] of 66%. For the same compound, the remaining binding at 1 µM [10] was 93%, the remaining binding at 1 µM [11] was 94% and the remaining binding at 1 µM [12] was 83%. It also gave a remaining binding at 1 µM [13] of 94%, a remaining binding at 1 µM [14] of 98% and a remaining binding at 1 µM [15] of 82%. It also gave a remaining binding at 1 µM [16] of 100%, a remaining binding at 1 µM [17] of 96% and a remaining binding at 1 µM [18] of 91%. For the same compound, the remaining binding at 1 µM [19] was 90%, the remaining binding at 1 µM [20] was 73% and the remaining binding at 1 µM [21] was 99%. It also gave a remaining binding at 1 µM [22] of 92%, a remaining binding at 1 µM [23] of 91% and a remaining binding at 1 µM [24] of 100%. It also gave a remaining binding at 1 µM [25] of 85%, a remaining binding at 1 µM [26] of 98% and a percent control [27] of 11%. The remaining binding at 1 µM [28] was 56%, the remaining binding at 1 µM [29] was 100% and the remaining binding at 1 µM [30] was 82%. It also gave a remaining binding at 1 µM [31] of 66%, a remaining binding at 1 µM [32] of 91% and a remaining binding at 1 µM [33] of 99%. The remaining binding at 1 µM [34] was 100%, the remaining binding at 1 µM [35] was 92% and the remaining binding at 1 µM [36] was 19%. For the same compound, the remaining binding at 1 µM [37] was 95%, the remaining binding at 1 µM [38] was 82% and the remaining binding at 1 µM [39] was 100%. For the same compound, the remaining binding at 1 µM [40] was 74% and the remaining binding at 1 µM [41] was 0.1%.
